Drawing on ChEMBL document CHEMBL1157539, “Thousands of chemical starting points for antimalarial lead identification” (Nature, 2010), this text covers XC50 for 34 compounds.

The assay deals with Plasmodium falciparum. The experiment in a line: GSK_TCMDC: Inhibition of Plasmodium falciparum 3D7 in whole erythrocytes, using parasite LDH activity as an index of growth. Format: functional, organism-based. Particulars: Plasmodium falciparum, 3D7.

Consider `Cc1cnc(N2CCN(CC3CCN(C)CC3)CC2)nc1Oc1ccc(-n2ccnc2)cc1`, for which the XC50 came to 725 nM.

The compound `c1ccc(Oc2ccc(Nc3ccnc4cc(-c5ccc(CNCCN6CCOCC6)o5)ccc34)cc2)cc1` had an XC50 of 439 nM.

`Cc1cc(NC(=O)Nc2ccc(C(C)C)cc2)c2ccccc2n1` came in with an XC50 of 662 nM.

Compound `CC1CCC(C[C@@H](C(=O)N[C@H](C(=O)Nc2nccs2)[C@@H](C)O)[C@H](CCC(F)(F)F)N(O)C=O)CC1` (some centres undefined) yielded an XC50 of 535 nM.

`CCOC(=O)c1ccc(-c2c(C(F)(F)F)noc2-c2cc(CC)c(OC)cc2O)o1` showed an XC50 of 206 nM.

In turn, `COc1ccc(S(=O)(=O)Nc2cc(Br)cc3c2OCCC3)cc1N1CCN(C(=O)C(Cl)(Cl)Cl)CC1` had an XC50 of 871 nM.

Compound `CN(c1cc(NC(=O)c2cccs2)ccn1)C1CCN(Cc2cccc(C#N)c2)CC1` came in with an XC50 of 1260 nM.

Regarding `c1cncc(Oc2ccc(Nc3ccnc4cc(-c5cccc(CN6CCCCC6)c5)ccc34)cc2)c1`, the XC50 amounted to 124 nM.

`CCCc1cc(Cc2cnc(N)nc2N)c2cccnc2c1OC` displayed an XC50 of 675 nM.

For `Cc1ccc(-c2nc(N3CCN(C(=O)c4ccco4)CC3)c3ccc(Cl)cc3n2)cc1`, the XC50 was 1210 nM.

Compound `O=C(O)/C=C/c1cccc(F)c1F` showed an XC50 of 96.1 nM.

Compound `COc1ccc(N2CCN(CCCCNC(=O)c3ccc(NC(=O)c4cc(C(F)(F)F)cc(C(F)(F)F)c4)cc3)CC2)c(OC)c1` displayed an XC50 of 153 nM.

In turn, `O=C(COc1ccccc1)Nn1cnc2ccccc21` had an XC50 of 1050 nM.

In turn, `N#Cc1ccc2c(c1)CCN(CCC1CCC(NC(=O)c3cccc(-c4ccc(F)cc4)c3)CC1)CC2` (centres undefined) yielded an XC50 of 822 nM.

With `Cc1nc(NCc2ccccc2)cc(Nc2cc(NCc3ccccc3)nc(C)n2)n1`, the XC50 came out at 971 nM.

Take `COc1ccc(-c2cccc(NC(=O)c3ccc(Cl)cc3)c2)cc1CNC(C)C`: the XC50 turned out to be 695 nM.

`c1ccc2[nH]c(-c3ccc(-c4ccc(CNC5CC5)cc4)s3)nc2c1` gave an XC50 of 1050 nM.

In turn, `Cn1cnc(CCNC(=O)c2ccc(-c3ccc(-c4nc5cc(C(F)(F)F)ccc5[nH]4)s3)cc2)c1` gave an XC50 of 402 nM.

Consider `CC1CN(c2ccc(NC(=O)c3ccc(F)cc3)cc2)CCN1Cc1cccc(F)c1` (centres undefined), for which the XC50 came to 1350 nM.

For the compound `CN(C)CCCN1CCN(Cc2ccc(-c3ccc(-c4nc5ccccc5[nH]4)s3)cc2)CC1`, the XC50 is 820 nM.

The compound `COc1cc(SC)ccc1C(=O)N1CC(C)CC(C)C1` (centres undefined) showed an XC50 of 354 nM.

Turning to `O=C(/C=C/c1ccc(C(F)(F)F)cc1)NCCCCCN1CCN(C(=O)Nc2ccc(Cl)c(Cl)c2)CC1`, the XC50 turned out to be 867 nM.

Compound `CN1CCCC1CCNCc1cccc(-c2cnc(N(C)C3CCCCC3)nc2)c1` (centres undefined) came in with an XC50 of 853 nM.

In turn, `CNC(=O)c1ccc2nc(-c3ccc(-c4ccccc4)cc3)n(CC3CCN(CC4CCCC4)CC3)c2c1` came in with an XC50 of 42.5 nM.

`O=C(NCCCCCN1CCC(c2c[nH]c3ccccc23)CC1)Nc1ccc(I)cc1` had an XC50 of 991 nM.

`CC(C)CNCc1cccc(-c2ccccc2CN(C(=O)Nc2ccccc2)C2CCN(Cc3ccccc3)CC2)c1` registered an XC50 of 642 nM.

On to `Clc1cccc(CNc2nc(NCCc3c[nH]cn3)nc(NC3CCCCC3)n2)c1`, for which the XC50 was determined as 790 nM.

`Clc1ccc(OCCC2CCN(CCCCCCCN3CCC(CCOc4ccc(Cl)c(Cl)c4)CC3)CC2)cc1Cl`: the XC50 was 624 nM.

Turning to `Cc1[nH]c(C)c([N+](=O)[O-])c(=O)c1-c1ccc(Oc2ccccc2)cc1`, the XC50 was determined as 266 nM.

The compound `CCn1ncc2c(NC3CCOCC3)c(CNC(=O)c3ccnn3C)c(C)nc21` yielded an XC50 of 533 nM.

Consider `C[C@@H](Oc1cc(-n2cnc3ccc(NC(=O)NC(C)(C)C)cc32)sc1C(N)=O)c1ccccc1Cl`, for which the XC50 was 330 nM.

`O=C(Nc1ccccc1)N(Cc1ccccc1-c1cccc(CNCc2ccc3c(c2)OCO3)c1)C1CCN(Cc2ccccc2)CC1`: the XC50 is 108 nM.

Compound `CN1CCN(c2ccnc3ccc(NC(=O)c4ccc(Cl)c(Cl)c4)cc23)CC1` had an XC50 of 710 nM.

Compound `O=S(=O)(NCCN1CCCC1)c1ccc(-c2ccc(CNC3Cc4ccccc4C3)cc2)cc1` had an XC50 of 664 nM.
